From publication PMC7288052 (Molecules, 2020)
Like-named read-outs stand apart in the source and are kept apart here. Each block holds one compound with its values, some of them ahead of it. Non-standard residues stand in square brackets, D forms with d. Residues, ends and D or L forms follow the SMILES beside them.

Legend:
μ-opioid receptor (μOR) = target: T1, μ-opioid receptor (μOR) (Rattus norvegicus, UniProt P33535); test: competitive radioligand displacement assay, μOR, [3H]DAMGO, rat brain homogenate membranes; assay type: binding; details: for decrease in μOR affinity compared to the parent TAPP: ratio of IC50 versus TAPP
T1 construct: from tissue; host or cells: rat brain homogenate (membrane fractions)
Experimental: (§1) The determinations were performed by a competitive radioligand displacement assay with selective radioligands.
(§2) Membrane fractions of rat brain Homogenate were incubated at 25 °C for 60 mins in the presence of radioligands (0.5 nM) specific for each receptor (μOR: [^3H]DAMGO and δOR: [^3H]DELT II, obtained as a generous gift from Prof. Géza Tóth) and the increasing concentrations of the tested compounds (10^−11 up to 10^−5 M, each concentration in duplicate). For measuring non-specific binding, 10 μM naloxone was used as the competitor. The assay buffer contained 50mM Tris-HCl (pH 7.4), bovine serum albumin (0.1 mg/mL), bacitracin (30 μg/mL), bestatin (30 μM), captopril (10 μM), and phenylmethylsulfonyl fluoride (0.1 mM) in the total reaction volume of 1 mL. After the incubation, the binding reactions were terminated by rapid filtration with M-24 Cell Harvester (Brandel/USA) through GF/B Whatman glass fibre strips. The filters were pre-soaked with 0.5% PEI before harvesting in order to minimize non-specific binding. Filter discs were placed separately in 24-well plates and immersed with the Optiphase Supermix scintillation cocktail (Perkin Elmer, Waltham, MA, USA). Radioactivity was measured using a MicroBeta LS Trilux scintillation counter (PerkinElmer, Waltham, MA, USA).

δ-opioid receptor (δOR) = target: T2, δ-opioid receptor (δOR) (Rattus norvegicus, UniProt P33533); test: competitive radioligand displacement assay, δOR, [3H]DELT II, rat brain homogenate membranes; assay type: binding; details: for δOR affinity in words: [3H]DELT II displacement, compared to parent TAPP
T2 construct: from tissue; host or cells: rat brain homogenate (membrane fractions)
Experimental: as §1, §2

[1] = stability against proteolysis in human plasma by HPLC/MS; assay type: in vitro ADME; details: for site of the first proteolytic cleavage: HPLC/MS; for stability in human plasma in words: up to 96 h, compared to TAPP; for half-life at […] / half-life: read-out: half-life time (T1/2) in human plasma (converted); for remaining at 96 h, 350 µM: read-out: C96h, percent of the initial peptide concentration remaining after 96 h
Experimental: The results are graphically presented in Figure 7 and the representative HPLC chromatograms are given in Figures SM-STAB-1 to SM-STAB-22 in Supplementary Materials. […] After 96 h, more than 90% of the initial peptide concentration (C96h > 90%) remained in the test sample. This is in marked contrast to endomorphin-2 (Tyr-Pro-Phe-Phe-NH2) that, in the very same conditions, is rapidly degraded with half-life time (T1/2) of only 30 min.
The determination of plasma stability was performed according to a previously described protocol with minor modifications. Human plasma for testing was obtained from a healthy donor. […] Portions of the plasma (100 μL) were dispensed into Eppendorf tubes and equilibrated at 37 ± 1 °C for 5 min, before adding 100 μL of the stock solution of each tested peptide. Samples of the test solution were taken and analyzed at several time points (0, 1, 2, 3, 4, 5, 6, 12, 24, 48, and 96 h of the experiment).
In order to precipitate the plasma proteins, 400 μL ethanol (98%) was added to the samples, whereafter shaking (1 min) and cooling in 4 °C (5 min) followed. Subsequently, the samples were centrifuged for 10 min at 2000 g. The supernatant (20 μL) was immediately analyzed by HPLC/MS using the LCMS-2010EV Shimadzu apparatus with a Phenomenex Jupiter 4u Proteo 90A, C12 (25 cm × 2 mm × 4 μm) column. The chromatography was performed in reversed-phase system (solvents A: 0.05% FA in water, B: 0.05% FA in acetonitrile) with a non-linear gradient was used (1–31% B in 20 min followed by an increase to 97% B from 20 to 30 min) at a solvent flow of 0.5 mL/min. The activity of the plasma was confirmed by using endomorphin-2 ([…]) as a control sample. The results of the HPLC/MS analyses allowed for quantitative determination of the concentration changes of the tested peptides. Furthermore, it was possible to indicate the location of the first proteolytic cleavage.

[2] = Human plasma for testing was obtained from a healthy donor; details: 37 ± 1 °C, up to 96 h
[3] = radioligand 0.5 nM [3H]DAMGO, rat brain homogenate, mean of three determinations in duplicate, read-out: IC50 ± S.E.M. μOR
[4] = radioligand 0.5 nM [3H]DELT II, rat brain homogenate, mean of three determinations in duplicate, read-out: IC50 δOR

T2 sequence (P33533 whole entry): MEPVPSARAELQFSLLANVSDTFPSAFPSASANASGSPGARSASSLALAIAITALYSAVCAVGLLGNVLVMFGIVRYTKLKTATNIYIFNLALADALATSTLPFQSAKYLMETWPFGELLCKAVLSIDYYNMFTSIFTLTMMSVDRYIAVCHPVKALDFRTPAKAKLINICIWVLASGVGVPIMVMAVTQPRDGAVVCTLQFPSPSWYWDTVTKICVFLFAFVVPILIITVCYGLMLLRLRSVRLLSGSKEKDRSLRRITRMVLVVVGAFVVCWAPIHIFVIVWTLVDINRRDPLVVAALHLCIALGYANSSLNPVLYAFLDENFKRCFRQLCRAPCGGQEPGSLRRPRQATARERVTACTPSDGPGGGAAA
T1 sequence (P33535 whole entry): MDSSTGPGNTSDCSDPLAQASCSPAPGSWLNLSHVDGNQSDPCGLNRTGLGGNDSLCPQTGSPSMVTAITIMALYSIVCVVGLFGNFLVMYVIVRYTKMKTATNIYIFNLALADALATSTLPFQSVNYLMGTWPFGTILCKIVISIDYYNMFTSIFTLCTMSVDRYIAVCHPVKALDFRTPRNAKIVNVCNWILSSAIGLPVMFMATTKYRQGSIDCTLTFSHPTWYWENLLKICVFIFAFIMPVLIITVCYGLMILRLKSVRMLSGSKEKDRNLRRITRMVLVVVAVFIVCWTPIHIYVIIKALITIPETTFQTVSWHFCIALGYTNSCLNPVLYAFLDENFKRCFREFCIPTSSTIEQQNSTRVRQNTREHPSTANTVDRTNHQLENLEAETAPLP

Compound: C[C@@H](NC(=O)[C@@H](CN)Cc1cccc(O)c1)C(=O)N[C@@H](Cc1ccccc1)C(=O)N[C@@H](Cc1ccccc1)C(N)=O [compound 9, [(R)-β^2h-m-Tyr^1]-TAPP*]
- IC50 (μ-opioid receptor (μOR); [3]): 48.9 ± 2.3 nM
- δOR affinity in words (δ-opioid receptor (δOR)): did not exhibit any measurable binding
- IC50 (δ-opioid receptor (δOR); [4]): > 10000 nM
- site of the first proteolytic cleavage [1]: C-terminal amide (deamidation)
- stability in human plasma in words [1]: stability similar to TAPPs

- cleaved bond [2]: Tyr1-D-Ala2, first_seen
Compound: [(R)-β^2hPhe^3]-TAPP

- cleaved bond [2]: Phe4-NH2, first_seen
Compound: [(R)-β^2hTyr^1]-TAPP*

Compound: C[C@@H](NC(=O)[C@@H](CN)Cc1ccc(O)cc1)C(=O)N[C@@H](Cc1ccccc1)C(=O)N[C@@H](Cc1ccccc1)C(N)=O [compound 8, [(R)-β^2hTyr^1]-TAPP*]
- IC50 (μ-opioid receptor (μOR); [3]): 77.6 ± 2.4 nM
- decrease in μOR affinity compared to the parent TAPP (μ-opioid receptor (μOR)): about 15 fold
- δOR affinity in words (δ-opioid receptor (δOR)): did not exhibit any measurable binding
- IC50 (δ-opioid receptor (δOR); [4]): > 10000 nM
- site of the first proteolytic cleavage [1]: C-terminal amide (deamidation)
- stability in human plasma in words [1]: stability similar to TAPPs

- cleaved bond [2]: Phe4-NH2, first_seen
Compound: [(S)-β^2h-m-Tyr^1]-TAPP*

Compound: NC(=O)[C@H](Cc1ccccc1)NC(=O)[C@H](Cc1ccccc1)NC(=O)[C@@H]1CCCN1C(=O)[C@@H](N)Cc1ccc(O)cc1 [endomorphin-2, Tyr-Pro-Phe-Phe-NH2, reference compound]
- half-life at […] ([1]; same conditions, control sample): 0.5 h

- cleaved bond [2]: Phe4-NH2, first_seen
Compound: [(R)-β^2h-m-Tyr^1]-TAPP*

Compound: C[C@@H](NC(=O)[C@H](CN)Cc1cccc(O)c1)C(=O)N[C@@H](Cc1ccccc1)C(=O)N[C@@H](Cc1ccccc1)C(N)=O [compound 14, [(S)-β^2h-m-Tyr^1]-TAPP*]
- IC50 (μ-opioid receptor (μOR); [3]): 11.2 ± 6.3 nM
- δOR affinity in words (δ-opioid receptor (δOR)): did not exhibit any measurable binding
- IC50 (δ-opioid receptor (δOR); [4]): > 10000 nM
- site of the first proteolytic cleavage [1]: C-terminal amide (deamidation)
- stability in human plasma in words [1]: stability similar to TAPPs

Compound: C[C@@H](NC(=O)[C@@H](N)Cc1ccc(O)cc1)C(=O)N[C@@H](Cc1ccccc1)C(=O)N[C@@H](Cc1ccccc1)C(N)=O [compound 1, H-Tyr-D-Ala-Phe-Phe-NH2, reference compound] (HELM PEPTIDE1{Y.[dA].F.F.[am]}$$$$V2.0)
- IC50 (δ-opioid receptor (δOR)): 616 nM
- δOR affinity in words (δ-opioid receptor (δOR)): low binding
- remaining at 96 h, 350 µM ([1]; 37 °C): > 90%
- site of the first proteolytic cleavage [1]: C-terminal amide (deamidation)
- stability in human plasma in words [1]: resistant to proteolysis

Compound: C[C@H](CNC(=O)[C@@H](N)Cc1ccc(O)cc1)C(=O)N[C@@H](Cc1ccccc1)C(=O)N[C@@H](Cc1ccccc1)C(N)=O [compound 15, [(R)-β^2hAla^2]-TAPP]
- half-life ([1]; 37 °C): ~4.5 h

- cleaved bond [2]: Tyr1-D-Ala2, first_seen
Compound: [(R)-β^2hPhe^4]-TAPP

Compound: C[C@@H](NC(=O)[C@H](CN)Cc1ccc(O)cc1)C(=O)N[C@@H](Cc1ccccc1)C(=O)N[C@@H](Cc1ccccc1)C(N)=O [compound 13, [(S)-β^2hTyr^1]-TAPP*]
- IC50 (μ-opioid receptor (μOR); [3]): 339 ± 5.1 nM
- δOR affinity in words (δ-opioid receptor (δOR)): did not exhibit any measurable binding
- IC50 (δ-opioid receptor (δOR); [4]): > 10000 nM
- site of the first proteolytic cleavage [1]: C-terminal amide (deamidation)
- stability in human plasma in words [1]: stability similar to TAPPs

- cleaved bond [2]: Phe4-NH2, first_seen
Compound: [(S)-β^2hTyr^1]-TAPP *

Compound: C[C@@H](NC(=O)[C@@H](N)Cc1ccc(O)cc1)C(=O)NC[C@H](Cc1ccccc1)C(=O)N[C@@H](Cc1ccccc1)C(N)=O [compound 16, [(S)-β^2hPhe^3]-TAPP]
- IC50 (μ-opioid receptor (μOR)): 15.5 ± 2.5 nM
- IC50 (δ-opioid receptor (δOR)): 890 nM
- δOR affinity in words (δ-opioid receptor (δOR)): at a level similar to the parent TAPP
- remaining at 96 h, 350 µM ([1]; 37 °C): > 65%

Compound: C[C@@H](NC(=O)[C@@H](N)Cc1ccc(O)cc1)C(=O)NC[C@@H](Cc1ccccc1)C(=O)N[C@@H](Cc1ccccc1)C(N)=O [compound 11, [(R)-β^2hPhe^3]-TAPP]
- IC50 (μ-opioid receptor (μOR)): 95.4 ± 2.5 nM
- decrease in μOR affinity compared to the parent TAPP (μ-opioid receptor (μOR)): more than 10 fold
- IC50 (δ-opioid receptor (δOR)): 794 nM
- δOR affinity in words (δ-opioid receptor (δOR)): at a level similar to the parent TAPP
- half-life at […] ([1]; 37 °C): ~40 h

Compound: H-Y[dA]FF-NH2
- cleaved bond [2]: Phe4-NH2, first_seen

- cleaved bond [2]: Tyr1-(S)-β^2hAla2, first_seen
Compound: [(S)-β^2hAla^2]-TAPP

Compound: C[C@@H](NC(=O)[C@@H](N)Cc1ccc(O)cc1)C(=O)N[C@@H](Cc1ccccc1)C(=O)NC[C@@H](Cc1ccccc1)C(N)=O [compound 12, [(R)-β^2hPhe^4]-TAPP]
- IC50 (μ-opioid receptor (μOR)): 1.9 ± 2.4 nM
- IC50 (δ-opioid receptor (δOR)): 708 nM
- δOR affinity in words (δ-opioid receptor (δOR)): at a level similar to the parent TAPP
- remaining at 96 h, 350 µM ([1]; 37 °C): 55%

Compound: C[C@@H](CNC(=O)[C@@H](N)Cc1ccc(O)cc1)C(=O)N[C@@H](Cc1ccccc1)C(=O)N[C@@H](Cc1ccccc1)C(N)=O [compound 10, [(S)-β^2hAla^2]-TAPP]
- half-life ([1]; 37 °C): ~4.5 h

- cleaved bond [2]: Tyr1-(R)-β^2hAla2, first_seen
Compound: [(R)-β^2hAla^2]-TAPP

- cleaved bond [2]: Tyr1-D-Ala2, first_seen
Compound: [(S)-β^2hPhe^4]-TAPP

Compound: C[C@@H](NC(=O)[C@@H](N)Cc1ccc(O)cc1)C(=O)N[C@@H](Cc1ccccc1)C(=O)NC[C@H](Cc1ccccc1)C(N)=O [compound 17, [(S)-β^2hPhe^4]-TAPP]
- IC50 (μ-opioid receptor (μOR)): 7.8 ± 4 nM
- IC50 (δ-opioid receptor (δOR)): 417 nM
- δOR affinity in words (δ-opioid receptor (δOR)): slight improvement in δOR affinity when compared to the parent peptide
- remaining at 96 h, 350 µM ([1]; 37 °C): ~90%
- stability in human plasma in words [1]: equally resistant to proteolysis as the parent

- cleaved bond [2]: Tyr1-D-Ala2, first_seen
Compound: [(S)-β^2hPhe^3]-TAPP
